Experiments:
[1] = described by Lucchesi et al. 1968; undesirable side-effect of prior art compound; cited from earlier work
[2] = test system: mongrel dogs; experiment: Epicardial ST segment elevation (ΣST) after 10-minute coronary artery branch occlusion in anesthetized dogs; assay type: in vivo, dog; conditions: 10 mg./kg. intravenously 15 minutes prior to the second 10-minute occlusion; control ΣST 34.8 ± 4.9 mV
Experimental: A group of 10 mongrel dogs, weighing 11-19 kg., is anesthetized by the intravenous administration of 30 mg./kg. of pentobarbital sodium and breathing maintained by means of a Harvard respirator. A thoractomy is performed through the fifth left intercostal space; the heart is suspended in a pericardial cradle; a branch of the left anterior descending coronary artery is dissected free and a suture placed under that vessel. Occlusion of that arterial branch is accomplished by passing the free ends of the suture through a short section of polyethylene tubing and pressing the tubing against the vessel while exerting traction on the free ends of the suture. Termination of the occlusion is achieved by releasing the suture and pulling the tube away from the vessel.
The degree of myocardial ischemic injury resulting from occlusion of the artery is determined by the epicardial electrocardiographic method described by Maroko et al., Circulation, 43, 67-82 (1971). […] All surface collateral vessels are ligated and the unipolar electrograms from the six epicardial leads and the Lead II electrocardiogram are recorded on a Grass model 7 polygraph. […]
The reproducibility of the method with respect to the magnitude of ΣST is determined by successive 10-minute occlusions in a group of five dogs. […]

[3] = test system: mongrel dogs; experiment: Myocardial oxygen consumption, left coronary arteries perfused with arterial blood at constant pressure, anesthetized dogs; assay type: in vivo, dog; conditions: 10 mg./kg. intravenously prior to perfusion; 5 dogs; mean control 11.7 ± 1.9; statistically significant (p<0.05) reduction
Experimental: A group of 5 mongrel dogs is anesthetized and thoractomized by the procedure described in the preceding assay and the left anterior descending and circumflex coronary arteries are cannulated and perfused with arterial blood at a constant pressure. Coronary arterial and venous blood samples are collected and their oxygen content measured. Myocardial oxygen consumption is calculated and expressed as ml./min./100 g. of the left ventricle. the mean control oxygen consumption in these 5 animals is 11.7 ± 1.9.
In a second group of 5 animals, prepared as described above, the selected dose of the test compound is administered intravenously prior to perfusion. The myocardial oxygen consumption is calculated and compared with the corresponding value in the control group. A compound is rated active if it effects a statistically significant reduction in the myocardial oxygen consumption observed in the control group.

[4] = test system: excised hearts perfused by donor dog; experiment: Oxygen consumption of excised hearts perfused with whole blood from a donor dog; assay type: in vivo; conditions: 10 mg./kg. intravenously to 5 donor dogs; value before treatment 3.1 ± 0.2; statistically significant (p<0.01) reduction
Experimental: In a separate assay, hearts are excised from anesthetized animals and perfused via the aorta at a constant pressure with oxygenated whole blood supplied by a donor dog connected to the heart. Oxygen consumption is calculated and expressed as ml./min./100 g. of the myocardium. The donor dogs are then treated intravenously with the selected dose of the test compound and the mean oxygen consumption value again calculated. The test compound is rated active if it effects a statistically significant reduction in that value.

Structure (SMILES) | local anesthetic activity [1] | sum of the ST segment elevation in the six epicardial leads (ΣST) [2] [mV] | myocardial oxygen consumption [3] | mean oxygen consumption value [4]
CC[N+](C)(CC)CC(O)COc1cccc2ccccc12 (stereo not shown) [1-(N,N-diethylamino)-3-(1-naphthoxy)propan-2-ol methiodide] | local anesthetic activity |  |  | 
CC(C)[N+](C)(C)CC(O)COc1cccc2ccccc12 (stereo not shown) [1-(N-isopropyl-N-methylamino)-3-(1-naphthoxy)propan-2-ol methochloride] |  | 11.3 ± 2.1 | 7.6 ± 1.1 ml./min./100 g. of the left ve | 2.1 ± 0.1 ml./min./100 g. of the myocard
